Marks after values point to notes of the source that are not given here.

Test [1] deals with Middle cerebral artery occlusion (MCAO) models of SD rata. The experiment in a line: Rat MCAO model, 28-day dosing, novel object recognition test. The class given is in vivo, SD rats. Conditions: test on D27, Mean±SD. How it is done: Middle cerebral artery occlusion (MCAO) models of SD rata were constructed by using the suture occlusion method. The rats were administered with the test compound for 28 consecutive days. The pharmacodynamic evaluation on the test compound for cerebral stroke was obtained based on general observation and neurobehavioral assessment. […] The ECA was ligated. The ICA was temporarily occluded. Sutures were threaded at both the proximal end and the distal end of CCA. The distal end was securely ligated, and a loosely tied knot was placed at the proximal end. A small incision was made on the CCA between these two sutures. […] The threading was halted temporarily when reaching the artery clamp of ICA. The pre-ligation suture was further tightened. The artery clamp blocking the blood flow in the ICA was removed, allowing the suture occlusion to be advanced into the ICA until it entered the intracranial region. […] The insertion was stopped at the moment, and the time was recorded. The artery clamp on the CCA was removed and the incision was closed after no active bleeding was observed. The ischemic rats were placed at room temperature to keep their body temperature at 37°C, and anesthesia induction could be carried out 120min later. The suture was slowly and gradually withdrawn under anesthesia until the proximal end retracted into the ECA, thereby initiating reperfusion of the middle cerebral artery. Animals received the designated dosage immediately (within 10 min) after reperfusion. This dosing regimen continued once daily for a duration of 28 days, with the day of operation being defined as D1 (Day 0). […] After the completion of the 28-day dosing period, all surviving animals in the study were euthanized, and their brains were rapidly collected for pathological analysis. […] Table 8 Results of Grid Walking Test (2) A novel object recognition test was performed on the last day of the treatment and the novel object recognition index (NRI) of animals in each group was calculated. […] The result has shown that Compound (I) has significant effect on animals with cognitive impairment caused by stroke (see details in Table 9). Table 9 Results of novel object recognition tests

The test system is the same in test [2]. As to the kind of experiment: Rat MCAO model, 28-day dosing, pathological examination (restoration area, perfused blood vessels). Format: in vivo, SD rats. The following applies: for Proportion of samples showing good recovery (%): restoration area > 30%; for No. of erythrocyte-containing blood vessels ≤10: number of animals. How it is done: Middle cerebral artery occlusion (MCAO) models of SD rata were constructed by using the suture occlusion method. The rats were administered with the test compound for 28 consecutive days. The pharmacodynamic evaluation on the test compound for cerebral stroke was obtained based on general observation and neurobehavioral assessment. […] The ECA was ligated. The ICA was temporarily occluded. Sutures were threaded at both the proximal end and the distal end of CCA. The distal end was securely ligated, and a loosely tied knot was placed at the proximal end. A small incision was made on the CCA between these two sutures. […] The threading was halted temporarily when reaching the artery clamp of ICA. The pre-ligation suture was further tightened. The artery clamp blocking the blood flow in the ICA was removed, allowing the suture occlusion to be advanced into the ICA until it entered the intracranial region. […] The insertion was stopped at the moment, and the time was recorded. The artery clamp on the CCA was removed and the incision was closed after no active bleeding was observed. The ischemic rats were placed at room temperature to keep their body temperature at 37°C, and anesthesia induction could be carried out 120min later. The suture was slowly and gradually withdrawn under anesthesia until the proximal end retracted into the ECA, thereby initiating reperfusion of the middle cerebral artery. Animals received the designated dosage immediately (within 10 min) after reperfusion. This dosing regimen continued once daily for a duration of 28 days, with the day of operation being defined as D1 (Day 0). […] After the completion of the 28-day dosing period, all surviving animals in the study were euthanized, and their brains were rapidly collected for pathological analysis. […] Table 8 Results of Grid Walking Test […] Table 10 Summary of Tissue Restoration in Each Group

The test system of test [3] is Middle cerebral artery occlusion (MCAO) models of SD rats. The experiment in a line: Rat MCAO model, 7 daily doses, neurobehavioral scoring (Bederson, NSS). Format: in vivo. On the set-up: scale not given here. The following applies: for NSS: 60mg/kg. An excerpt: Middle cerebral artery occlusion (MCAO) models of SD rats were constructed using the suture occlusion method to evaluate the neuroprotective effect of the compound on neurons of rats after cerebral ischemia-reperfusion. […] The ECA was ligated. The ICA was temporarily occluded. Sutures were threaded at both the proximal end and the distal end of CCA. The distal end was securely ligated, and a loosely tied knot was placed at the proximal end. A small incision was made on the CCA between these two sutures. […] The threading was halted temporarily when reaching the artery clamp of ICA. The pre-ligation suture was further tightened. The artery clamp blocking the blood flow in the ICA was removed, allowing the suture occlusion to be advanced into the ICA until it entered the intracranial region. […] The insertion was stopped at the moment, and the time was recorded. The artery clamp on the CCA was removed and the incision was closed after no active bleeding was observed. The ischemic rats were placed at room temperature to keep their body temperature at 37°C, and anesthesia induction could be carried out 120min later. The suture was slowly and gradually withdrawn when the rats were maintained under anesthesia, so that the proximal end of the suture returned to the ECA, thereby initiating reperfusion of the middle cerebral artery. […] A single dose was administered immediately after reperfusion (within 10 minutes), followed by one dose per day for a total of 7 consecutive doses (including the first dose). Except for the initial administration, all subsequent doses were given between 4:00 PM and 7:00 PM each day. […] Animals were euthanized 7 days after ischemia reperfusion, and the brains were rapidly taken, frozen, and dissected for TTC staining. The normal tissues were rose-red after staining, and the infarcted tissues were white. The infarct size (%) percentage, calculated as the weight of infarcted tissues to the weight of the whole brain, is used to evaluate the degree of cerebral ischemic injury in rats. […] Table 12 Cerebral infarct size and cerebral infarction inhibition rate of experimental animals (2) Neurobehavioral scoring: […] Table 13: Results of Neurobehavioral Scores in Animals

The mark [4] stands for this setting: high dose 20mg/kg p.o. q.d. 28 days.
The mark [5] stands for this setting: high dose 20mg/kg p.o. q.d. 28 days, N = 12.
Where [6] appears, read: low dose 6mg/kg p.o. q.d. 28 days.
Where [7] appears, read: low dose 6mg/kg p.o. q.d. 28 days, N = 12.
Where [8] appears, read: 60mg/kg p.o. q.d. 28 days, N = 14.

As for `CCC/C(O)=C1/C(=O)Oc2ccccc21` [Compound (I)], in test [1] (high dose 20mg/kg p.o. q.d.), the “Recognition index (%) Familiar object” value is 28.34± 17.06%, the “Sniffing time (S) Familiar object” value is recorded as 2.20± 1.66 S and the “Sniffing time (S) Novel object” value is 5.62± 3.60 S. The “Recognition index (%) Novel object” value in test [1] (high dose 20mg/kg p.o. q.d., 20 mg/kg) is 71.66±17.06%. Further, in test [1] (low dose 6mg/kg p.o. q.d.), the “Recognition index (%) Familiar object” value stood at 29.02± 22.60%, the “Sniffing time (S) Familiar object” value was determined as 1.54± 1.10 S and the “Sniffing time (S) Novel object” value stood at 4.74± 3.61 S. For the same molecule, the “Recognition index (%) Novel object” value in test [1] (low dose 6mg/kg p.o. q.d., 6 mg/kg) is reported as 70.98±22.60%. In test [2] (setting [4]), the “Proportion of erythrocyte-containing blood vessels>10 (%)” value is listed as 92.3% and the “Proportion of samples showing good recovery (%)” value came out at 75.0%. Moreover, in test [2] (setting [5]), the “Number of samples Restoration area > 30%” value is recorded as 9** and the “Number of samples Restoration area ≤ 30%” value was 3. In test [2] (setting [6]), the “Proportion of erythrocyte-containing blood vessels>10 (%)” value came out at 100% and the “Proportion of samples showing good recovery (%)” value stood at 33.3%. In addition, in test [2] (setting [7]), the “Number of samples Restoration area > 30%” value turned out to be 4, the “Number of samples Restoration area ≤ 30%” value turned out to be 8 and the “No. of erythrocyte-containing blood vessels ≤10” value is recorded as 0. The “No. of erythrocyte-containing blood vessels ≤10” value in test [2] (high dose 20mg/kg p.o. q.d. 28 days, N = 13) was determined as 1.

In the case of `CCCCC1OC(=O)c2ccccc21` (centres unmarked) [Butylphthalide, butylphthalide, reference compound], the Bederson in test [3] (60mg/kg group, score after surgery, Mean±SD) came out at 3.00± 0.00. Moreover, the NSS is 0.00± 0.00 in test [3] (D0 (one day before surgery), Mean±SD); 6.71± 1.36 in test [3] (D2 (1 day after surgery), Mean±SD); 5.75±0.92 in test [3] (D4 (3 days after surgery), Mean±SD); 4.88± 1.73 in test [3] (D6 (5 days after surgery), Mean±SD); 4.04±1.20 in test [3] (D8 (7 days after surgery), Mean±SD). The “Sniffing time (S) Familiar object” value in test [1] (60mg/kg p.o. q.d.) was 1.60± 1.01 S. Further, the “Sniffing time (S) Novel object” value in test [1] (60mg/kg p.o. q.d.) was 4.94± 3.60 S. Besides, the “Proportion of erythrocyte-containing blood vessels>10 (%)” value in test [2] (60mg/kg p.o. q.d. 28 days) stood at 93.3%. For the same molecule, the “Number of samples Restoration area > 30%” value in test [2] (setting [8]) is 3. Moreover, in test [2] (setting [8]), the “Number of samples Restoration area ≤ 30%” value is on record as 11. The “Proportion of samples showing good recovery (%)” value in test [2] (60mg/kg p.o. q.d. 28 days) was determined as 21.4%. Also, the “No. of erythrocyte-containing blood vessels ≤10” value in test [2] (60mg/kg p.o. q.d. 28 days, N = 15) came to 1.

In the case of “(Z)-3-(1-hydroxybutenyl)benzofuran-2-one tromethamine salt [Example 10]”, the Bederson in test [3] (rat, in vivo) is 3.00± 0.00.

Source of the values: patent EP4660190A1, “PHARMACEUTICALLY ACCEPTABLE SALT OF COMPOUND AND PREPARATION METHOD THEREFOR” (Jiangsu Chia Tai Fenghai Pharmaceutical Co., Ltd., priority 2023, dated 2024).
